Here are results for twelve molecules from PMC7531004, “Discovery of gramicidin A analogues with altered activities by multidimensional screening of a one-bead-one-compound library” (Nature Communications, 2020).

Where a SMILES comes first, the peptide text is derived from it. [ ]: non-standard residue; d: D form. The star is where a group is joined. NHCH2CH2OH = OCCN*; For = O=C*

Data set [1] is described as follows: H+/Na+ transport assay of bead-derived peptides (one-point).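 Note: relative to parent gramicidin A activity set to 1.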 It is filed as biochemical. Further details: key: relative activity; mean of two control wells = 1.00. The note with it: bead-derived peptide solution, EYPC/EYPG LUVs. The method, boiled down: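 H+/Na+ transport is monitored through pyranine fluorescence in freshly extruded LUVs after a 30-min room-temperature vortex with each library peptide at a single concentration. Signals are normalized to detergent (Triton X-100) and untreated controls.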

For data set [2], the system named is Streptococcus pyogenes SSI-9. The data set is described as follows: Antibacterial activity assay of bead-derived peptides (three concentrations). It is filed as cell-based. Also noted: key: +++: inhibition by the 640-fold diluted peptide solution; ++: inhibition by the 160-fold diluted solution; +: inhibition by the 40-fold diluted solution; -: no inhibition. To be noted: S. pyogenes, bead-derived peptide solution, three concentrations. The method, boiled down:
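Bead-derived library peptide stocks in DMSO were tested undiluted and after 4- and 16-fold DMSO dilution against S. pyogenes SSI-9 (2 × 10^5 CFU/well) in cation-adjusted Mueller Hinton Broth with 5% laked horse blood. After 18 h at 37 °C, wells were scored for precipitation of grown cells.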

In data set [3] the test system is P388 mouse leukemia cells. The note with it: 92 h. The method, boiled down: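 First, library peptide stocks are diluted 250-fold in RPMI1640 with 10% heat-inactivated FBS. Next, they are mixed with P388 cells to give 1 × 10^4 cells/mL and incubated 92 h at 37 °C, 5% CO2. Finally, viability (%) is scored by WST-1 absorbance at 415 nm.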

As to `CNC(=O)C[C@@H](NC(=O)[C@@H](NC(=O)[C@H](NC(=O)[C@H](C)NC(=O)[C@H](NC(=O)[C@H](C)NC(=O)CNC(=O)[C@@H](NC=O)C(C)C)C(C)C)C(C)C)C(C)C)C(=O)N[C@@H](Cc1c[nH]c2ccccc12)C(=O)N[C@H](CC(C)C)C(=O)N[C@@H](Cc1c[nH]c2ccccc12)C(=O)N[C@H](CC(C)C)C(=O)N[C@@H](Cc1c[nH]c2ccccc12)C(=O)N[C@@H](C(=O)N[C@@H](Cc1c[nH]c2ccccc12)C(=O)NCCO)C(C)C` [compound 12373] (For-VGA[dV]A[dV]V[dD](NHMe)W[dL]W[dL]W[dV]W-NHCH2CH2OH), the “H+/Na+ transport activity normalized against the value of 1 (1.00)” value (“H+/Na+ transport activity normalized” below) in data set [1] worked out at 1.04. Also, the antibacterial activity entry in data set [2] was “-”. In data set [3], this molecule returned a cell viability/% of 100.0%.

For `CC(C)C[C@@H](NC(=O)[C@H](C)NC(=O)[C@H](NC(=O)[C@H](C)NC(=O)CNC(=O)[C@@H](NC=O)C(C)C)[C@H](C)O)C(=O)N[C@H](C(=O)N[C@@H](C(=O)N[C@@H](Cc1c[nH]c2ccccc12)C(=O)N[C@@H](C(=O)N[C@@H](Cc1c[nH]c2ccccc12)C(=O)N[C@H](CC(C)C)C(=O)N[C@@H](Cc1c[nH]c2ccccc12)C(=O)N[C@@H](C(=O)N[C@@H](Cc1c[nH]c2ccccc12)C(=O)NCCO)C(C)C)C(C)C)C(C)C)C(C)C` [compound 8687] (For-VGA[dT]A[dL]V[dV]W[dV]W[dL]W[dV]W-NHCH2CH2OH), in data set [1], the “H+/Na+ transport activity normalized” value amounted to 1.15. Also, the antibacterial activity result in data set [2] is “-”. The molecule further showed a cell viability/% in data set [3] of 66.9%.

For the molecule `CC(C)C[C@@H](NC(=O)[C@H](C)NC(=O)CNC(=O)[C@@H](NC=O)C(C)C)C(=O)N[C@@H](C)C(=O)N[C@@H](C(=O)N[C@H](C(=O)N[C@@H](C(=O)N[C@@H](Cc1c[nH]c2ccccc12)C(=O)N[C@@H](C(=O)N[C@@H](Cc1c[nH]c2ccccc12)C(=O)N[C@H](CC(C)C)C(=O)N[C@@H](Cc1c[nH]c2ccccc12)C(=O)N[C@H](CC(C)C)C(=O)N[C@@H](Cc1c[nH]c2ccccc12)C(=O)NCCO)C(C)C)C(C)C)C(C)C)C(C)C` [compound 2082] (For-VGA[dL]A[dV]V[dV]W[dV]W[dL]W[dL]W-NHCH2CH2OH), in data set [1], the “H+/Na+ transport activity normalized” value is given as 1.16. Besides, the antibacterial activity entry in data set [2] is “+”. The molecule also had a cell viability/% in data set [3] of 100.0%.

In the case of `CC(C)C[C@@H](NC(=O)[C@H](Cc1c[nH]c2ccccc12)NC(=O)[C@@H](CC(C)C)NC(=O)[C@H](Cc1c[nH]c2ccccc12)NC(=O)[C@H](NC(=O)[C@H](Cc1c[nH]c2ccccc12)NC(=O)[C@@H](CC(C)C)NC(=O)[C@@H](NC(=O)[C@H](NC(=O)[C@H](C)NC(=O)[C@H](NC(=O)[C@H](C)NC(=O)CNC(=O)[C@@H](NC=O)C(C)C)C(C)C)C(C)C)C(C)C)C(C)C)C(=O)N[C@@H](Cc1c[nH]c2ccccc12)C(=O)NCCO` [compound 4329] (For-VGA[dV]A[dV]V[dL]W[dV]W[dL]W[dL]W-NHCH2CH2OH), in data set [1], the “H+/Na+ transport activity normalized” value is 1.18. For the same molecule, the antibacterial activity result in data set [2] was “-”. Also, in data set [3], the cell viability/% came out at 14.3%.

Consider `CC(C)C[C@@H](NC(=O)[C@H](C)NC(=O)CNC(=O)[C@@H](NC=O)C(C)C)C(=O)N[C@@H](C)C(=O)N[C@H](CC(C)C)C(=O)N[C@H](C(=O)N[C@@H](C(=O)N[C@@H](Cc1c[nH]c2ccccc12)C(=O)N[C@@H](C(=O)N[C@@H](Cc1c[nH]c2ccccc12)C(=O)N[C@@H](C(=O)N[C@@H](Cc1c[nH]c2ccccc12)C(=O)N[C@H](CC(C)C)C(=O)N[C@@H](Cc1c[nH]c2ccccc12)C(=O)NCCO)C(C)C)C(C)C)[C@H](C)O)C(C)C` [compound 7548] (For-VGA[dL]A[dL]V[dT]W[dV]W[dV]W[dL]W-NHCH2CH2OH), for which the “H+/Na+ transport activity normalized” value in data set [1] is 1.08. Also, the antibacterial activity result in data set [2] is “-”. In data set [3], this molecule yielded a cell viability/% of 100.0%.

Turning to `CC(C)C[C@@H](NC(=O)[C@H](C)NC(=O)[C@H](NC(=O)[C@H](C)NC(=O)CNC(=O)[C@@H](NC=O)C(C)C)C(C)C)C(=O)N[C@H](C(=O)N[C@@H](C(=O)N[C@@H](Cc1c[nH]c2ccccc12)C(=O)N[C@H](CC(C)C)C(=O)N[C@@H](Cc1c[nH]c2ccccc12)C(=O)N[C@H](CC(C)C)C(=O)N[C@@H](Cc1c[nH]c2ccccc12)C(=O)N[C@@H](C(=O)N[C@@H](Cc1c[nH]c2ccccc12)C(=O)NCCO)C(C)C)C(C)C)C(C)C` [compound 5872] (For-VGA[dV]A[dL]V[dV]W[dL]W[dL]W[dV]W-NHCH2CH2OH), in data set [1], the “H+/Na+ transport activity normalized” value was found to be 1.02. The antibacterial activity result in data set [2] is “+”. Besides, the cell viability/% in data set [3] is recorded as 9.9%.

Take `CC(C)C[C@@H](NC(=O)[C@H](C)NC(=O)CNC(=O)[C@@H](NC=O)C(C)C)C(=O)N[C@@H](C)C(=O)N[C@H](CC(C)C)C(=O)N[C@H](C(=O)N[C@H](CC(C)C)C(=O)N[C@@H](Cc1c[nH]c2ccccc12)C(=O)N[C@@H](C(=O)N[C@@H](Cc1c[nH]c2ccccc12)C(=O)N[C@@H](C(=O)N[C@@H](Cc1c[nH]c2ccccc12)C(=O)N[C@H](CC(C)C)C(=O)N[C@@H](Cc1c[nH]c2ccccc12)C(=O)NCCO)C(C)C)[C@H](C)O)C(C)C` [compound 11660] (For-VGA[dL]A[dL]V[dL]W[dT]W[dV]W[dL]W-NHCH2CH2OH): the “H+/Na+ transport activity normalized” value in data set [1] is 1.09. The antibacterial activity entry in data set [2] is on record as “-”. The cell viability/% in data set [3] was 100.0%.

For the molecule `CNC(=O)C[C@@H](NC(=O)[C@H](Cc1c[nH]c2ccccc12)NC(=O)[C@H](NC(=O)[C@@H](NC(=O)[C@@H](CC(C)C)NC(=O)[C@H](C)NC(=O)[C@@H](CC(C)C)NC(=O)[C@H](C)NC(=O)CNC(=O)[C@@H](NC=O)C(C)C)C(C)C)C(C)C)C(=O)N[C@@H](Cc1c[nH]c2ccccc12)C(=O)N[C@H](CC(C)C)C(=O)N[C@@H](Cc1c[nH]c2ccccc12)C(=O)N[C@@H](C(=O)N[C@@H](Cc1c[nH]c2ccccc12)C(=O)NCCO)C(C)C` [compound 6889] (For-VGA[dL]A[dL]V[dV]W[dD](NHMe)W[dL]W[dV]W-NHCH2CH2OH), the “H+/Na+ transport activity normalized” value in data set [1] was determined as 1.10. For the same molecule, in data set [2], the antibacterial activity entry is recorded as “-”. Moreover, the cell viability/% in data set [3] was 100.0%.

For the molecule `CC(C)C[C@@H](NC(=O)[C@H](C)NC(=O)[C@H](NC(=O)[C@H](C)NC(=O)CNC(=O)[C@@H](NC=O)C(C)C)C(C)C)C(=O)N[C@H](C(=O)N[C@@H](C(=O)N[C@@H](Cc1c[nH]c2ccccc12)C(=O)N[C@@H](C(=O)N[C@@H](Cc1c[nH]c2ccccc12)C(=O)N[C@H](CC(C)C)C(=O)N[C@@H](Cc1c[nH]c2ccccc12)C(=O)N[C@H](CC(C)C)C(=O)N[C@@H](Cc1c[nH]c2ccccc12)C(=O)NCCO)[C@H](C)O)[C@H](C)O)C(C)C` [compound 10517] (For-VGA[dV]A[dL]V[dT]W[dT]W[dL]W[dL]W-NHCH2CH2OH), in data set [1], the “H+/Na+ transport activity normalized” value stood at 1.05. Moreover, the antibacterial activity result in data set [2] was “-”. The cell viability/% in data set [3] was determined as 100.0%.

As to `CC(C)C[C@@H](NC(=O)[C@H](C)NC(=O)CNC(=O)[C@@H](NC=O)C(C)C)C(=O)N[C@@H](C)C(=O)N[C@H](CC(C)C)C(=O)N[C@H](C(=O)N[C@H](CC(C)C)C(=O)N[C@@H](Cc1c[nH]c2ccccc12)C(=O)N[C@@H](C(=O)N[C@@H](Cc1c[nH]c2ccccc12)C(=O)N[C@H](CC(C)C)C(=O)N[C@@H](Cc1c[nH]c2ccccc12)C(=O)N[C@H](CC(C)C)C(=O)N[C@@H](Cc1c[nH]c2ccccc12)C(=O)NCCO)[C@H](C)O)C(C)C` [compound 11408] (For-VGA[dL]A[dL]V[dL]W[dT]W[dL]W[dL]W-NHCH2CH2OH), the “H+/Na+ transport activity normalized” value in data set [1] stood at 1.30. Besides, the antibacterial activity result in data set [2] is on record as “-”. Further, in data set [3], the cell viability/% was 57.5%.

Turning to `CNC(=O)C[C@@H](NC(=O)[C@@H](NC(=O)[C@@H](CC(C)C)NC(=O)[C@H](C)NC(=O)[C@H](NC(=O)[C@H](C)NC(=O)CNC(=O)[C@@H](NC=O)C(C)C)C(C)C)C(C)C)C(=O)N[C@@H](Cc1c[nH]c2ccccc12)C(=O)N[C@@H](C(=O)N[C@@H](Cc1c[nH]c2ccccc12)C(=O)N[C@@H](C(=O)N[C@@H](Cc1c[nH]c2ccccc12)C(=O)N[C@@H](C(=O)N[C@@H](Cc1c[nH]c2ccccc12)C(=O)NCCO)C(C)C)C(C)C)C(C)C` [compound 8459] (For-VGA[dV]A[dL]V[dD](NHMe)W[dV]W[dV]W[dV]W-NHCH2CH2OH), in data set [1], the “H+/Na+ transport activity normalized” value came to 1.03. Besides, in data set [2], the antibacterial activity entry was “-”. Besides, the cell viability/% in data set [3] is given as 47.5%.

As for `CC(C)C[C@@H](NC(=O)[C@H](C)NC(=O)CNC(=O)[C@@H](NC=O)C(C)C)C(=O)N[C@@H](C)C(=O)N[C@H](CC(C)C)C(=O)N[C@H](C(=O)N[C@H](CC(C)C)C(=O)N[C@@H](Cc1c[nH]c2ccccc12)C(=O)N[C@@H](C(=O)N[C@@H](Cc1c[nH]c2ccccc12)C(=O)N[C@H](CC(C)C)C(=O)N[C@@H](Cc1c[nH]c2ccccc12)C(=O)N[C@H](CC(C)C)C(=O)N[C@@H](Cc1c[nH]c2ccccc12)C(=O)NCCO)C(C)C)C(C)C` [compound 11198] (For-VGA[dL]A[dL]V[dL]W[dV]W[dL]W[dL]W-NHCH2CH2OH), the “H+/Na+ transport activity normalized” value in data set [1] stood at 1.08. In data set [2], the antibacterial activity entry is on record as “-”. In data set [3], the cell viability/% came to 3.2%.
